# Measurements from article PMC12652692, “Synthesis and In Vitro Anticancer Evaluation of Novel Phosphonium Derivatives of Chrysin” (International Journal of Molecular Sciences, 2025).
# How the values were obtained:
# Format in all cases: cell-based
# [1] = test system: HOP-62; experiment: NCI60 five-dose screen; conditions: Homo sapiens; HOP-62, Non-small-Cell Lung Cancer
# Outline: (§1)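 Five-concentration 48 h exposure in RPMI 1640/5% FBS medium at 37 °C, with cells seeded 24 h beforehand. Read-out: TCA fixation and SRB absorbance at 515 nm. GI50 marks 50% reduction of net protein increase.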
# [2] = test system: OVCAR-5; experiment: NCI60 five-dose screen; conditions: Homo sapiens; OVCAR-5, Ovarian Cancer
# Outline: as §1
# [3] = test system: HS 578T; experiment: NCI60 five-dose screen; conditions: Homo sapiens, Breast Cancer
# Outline: as §1
# [4] = test system: A498; experiment: NCI60 five-dose screen; conditions: Homo sapiens; A498, Renal Cancer
# Outline: as §1
# [5] = test system: 786-0; experiment: NCI60 five-dose screen; conditions: Homo sapiens; 786-0, Renal Cancer
# Outline: as §1
# [6] = test system: HL-60(TB); experiment: NCI60 five-dose screen; conditions: Homo sapiens, Leukemia
# Outline: as §1
# [7] = test system: MDA-MB231ATCC; experiment: NCI60 five-dose screen; conditions: Homo sapiens, MDA-MB-231, Breast Cancer
# Outline: as §1
# [8] = test system: SNB-19; experiment: NCI60 five-dose screen; conditions: Homo sapiens; SNB-19, CNS Cancer
# Outline: as §1
# [9] = test system: LOX IMVI; experiment: NCI60 five-dose screen; conditions: Homo sapiens, Melanoma
# Outline: as §1
# [10] = test system: BT-549; experiment: NCI60 five-dose screen; conditions: Homo sapiens; BT-549, Breast Cancer
# Outline: as §1
# [11] = test system: TK-10; experiment: NCI60 five-dose screen; conditions: Homo sapiens; TK-10, Renal Cancer
# Outline: as §1
# [12] = test system: U251; experiment: NCI60 five-dose screen; conditions: Homo sapiens, U-251; U251, CNS Cancer
# Outline: as §1
# [13] = test system: UACC-257; experiment: NCI60 five-dose screen; conditions: Homo sapiens; UACC-257, Melanoma
# Outline: as §1
# [14] = test system: SN12C; experiment: NCI60 five-dose screen; conditions: Homo sapiens, Renal Cancer
# Outline: as §1
# [15] = test system: K-562; experiment: NCI60 five-dose screen; conditions: Homo sapiens, K562; K-562, Leukemia
# Outline: as §1
# [16] = test system: HCT-15; experiment: NCI60 five-dose screen; conditions: Homo sapiens; HCT-15, Colon Cancer
# Outline: as §1
# [17] = test system: 60 human cancer cell lines; experiment: NCI60 five-dose screen, overall mean; conditions: mean over all 60 cell lines
# Method: Since all new conjugates (3a–h) had notable antiproliferative activities on several tumor cell lines in the course of the one-dose screening, they were subjected to a five-dose test. […] J. Mol. Sci. 2025, 26, 11063 10 of 10 S.3. NCI60 Screening A detailed description of the NCI screening procedures can also be found on the website of NCI [39], and in our previous work. S.3.1. One-Dose Screen All candidates were examined at first at a single high dose (10 μM) in the full NCI60 cell panel. The value reported for the one-dose test is growth relative to the no-drug control and relative to the time zero number of cells. This made possible the disclosure of both growth inhibition (numbers between 0 and 100) and lethality (numbers less than 0). For example, a value of 100 means no growth inhibition. A value of 20 would mean 80% growth inhibition. A value of 0 means no net growth over the course of the analysis. A value of −20 would mean 20% lethality. A value of −100 means all cells are dead. S.3.2. […] The human tumor cell lines of the cancer screening panel were grown in RPMI 1640 medium containing 5% fetal bovine serum and 2 mM l-glutamine. Characteristically, cells were injected in 96-well microtiter plates in 0.1 mL at plating densities ranging from 5000 to 40,000 cells/well, depending on the doubling time of individual cell lines. After cell inoculation, the microtiter plates were incubated at 37 °C, 5% carbon dioxide, 95% air, and 100% relative humidity for 24 hours before the addition of tested compounds. After 24 hours, 2 plates of each cell line were fixed in situ with Cl3COOH (TCA), to represent a measurement of the cell population for each cell line at the time of drug addition (tz). Tested compounds were solubilized in DMSO at 400-fold the desired final maximum test concentration and stored frozen before application. In the course of the drug addition, an aliquot of frozen concentrate was thawed and diluted to twice the desired final maximum test concentration with a complete medium containing 50 μg mL−1 gentamicin. Additional four, 10-fold or ½ log serial dilutions were produced to furnish a total of five drug concentrations plus control. Aliquots of 0.1 mL of these different drug dilutions were added to the appropriate microtiter wells already containing 0.1 mL of medium, resulting in the required final drug concentrations. Following drug addition, the plates were incubated at 37 °C, 5% carbon dioxide, 95% air, and 100% relative humidity for an additional 48 hours. For adherent cells, the test was finished by the addition of cold Cl3COOH. Cells were fixed in situ by the addition of 50 μL of cold 50% (w/v) Cl3COOH, and incubated at 4 °C for 1 hour. The supernatant was discarded, and the plates were washed with H2O (5×) and dried in air. Sulforhodamine B (SRB) solution (0.1 mL) at 0.4% (w/v) in 1% CH3COOH was added to each well, and plates were incubated at RT for 10 min. After staining, the unbound dye was removed by washing five times with 1% CH3COOH, and the plates were dried in the air. The bound stain is afterward solubilized with a 10 mM trizma base, and the absorbance is read on an automated plate reader at λ = 515 nm. Utilizing the seven absorbance measurements [time zero (tz), control growth (c), and test growth in the presence of the drug at the five concentration levels (ti)], the percentage growth was determined at each of the drug concentration levels. Growth inhibition (%) was calculated as: [(ti − tz)/(c − tz)] × 100, for concentrations where ti ≥ tz (1) [(ti − tz)/(tz)] × 100, for concentrations where ti < tz. (2) Three dose‒response parameters were calculated as follows. GI50 (growth inhibition of 50%) was determined from Equation (3), which is the drug concentration resulting in a 50% reduction in the net protein increase (as measured by SRB staining) in control cells in the course of the drug incubation. [(ti − tz)/(c − tz)] × 100 = 50 (3)
Compound,GI50 [1],GI50 [2],GI50 [3],GI50 [4],GI50 [5],GI50 [6],GI50 [7],GI50 [8],GI50 [9],GI50 [10],GI50 [11],GI50 [12],GI50 [13],GI50 [14],GI50 [15],GI50 [16],GI50 [17]
COc1ccc([P+](CCCCOc2cc(O)c3c(=O)cc(-c4ccccc4)oc3c2)(c2ccc(OC)cc2)c2ccc(OC)cc2)cc1 [3c],732 nM,852 nM,332 nM,1570 nM,1210 nM,288 nM,315 nM,333 nM,355 nM,349 nM,1090 nM,276 nM,277 nM,317 nM,376 nM,1550 nM,565 nM
Cc1ccccc1[P+](CCCCOc1cc(O)c2c(=O)cc(-c3ccccc3)oc2c1)(c1ccccc1C)c1ccccc1C [3g],332 nM,1720 nM,232 nM,462 nM,291 nM,180 nM,337 nM,353 nM,170 nM,291 nM,414 nM,225 nM,261 nM,230 nM,279 nM,1410 nM,437 nM
O=c1cc(-c2ccccc2)oc2cc(OCCCC[P+](c3ccccc3)(c3ccccc3)c3ccccc3)cc(O)c12 [3a],480 nM,1150 nM,306 nM,422 nM,553 nM,167 nM,240 nM,279 nM,326 nM,257 nM,464 nM,315 nM,282 nM,330 nM,216 nM,628 nM,455 nM
O=c1cc(-c2ccccc2)oc2cc(OCCCC[P+](C3CCCCC3)(C3CCCCC3)C3CCCCC3)cc(O)c12 [3e],1560 nM,1300 nM,838 nM,1690 nM,1570 nM,184 nM,366 nM,505 nM,938 nM,709 nM,1430 nM,287 nM,267 nM,509 nM,402 nM,1550 nM,957 nM
COc1c(C)cc([P+](CCCCOc2cc(O)c3c(=O)cc(-c4ccccc4)oc3c2)(c2cc(C)c(OC)c(C)c2)c2cc(C)c(OC)c(C)c2)cc1C [3f],311 nM,335 nM,361 nM,367 nM,338 nM,78 nM,258 nM,276 nM,284 nM,280 nM,427 nM,67 nM,298 nM,313 nM,34 nM,345 nM,312 nM
O=c1cc(-c2ccccc2)oc2cc(OCCCC[P+](c3ccccc3)(c3ccccc3)c3ccccn3)cc(O)c12 [3h],1520 nM,1440 nM,1130 nM,1730 nM,1570 nM,130 nM,906 nM,524 nM,694 nM,293 nM,1690 nM,335 nM,298 nM,510 nM,189 nM,1580 nM,949 nM
O=c1cc(-c2ccccc2)oc2cc(OCCCC[P+](c3ccc(F)cc3)(c3ccc(F)cc3)c3ccc(F)cc3)cc(O)c12 [3d],1560 nM,3000 nM,1980 nM,2070 nM,1830 nM,1340 nM,1910 nM,1670 nM,1690 nM,1610 nM,1740 nM,1670 nM,1660 nM,2490 nM,1400 nM,1850 nM,2050 nM
Cc1ccc([P+](CCCCOc2cc(O)c3c(=O)cc(-c4ccccc4)oc3c2)(c2ccc(C)cc2)c2ccc(C)cc2)cc1 [3b],307 nM,684 nM,366 nM,400 nM,373 nM,140 nM,320 nM,295 nM,287 nM,344 nM,313 nM,279 nM,367 nM,389 nM,137 nM,311 nM,322 nM
